How the values were obtained:
Format in all cases: in vitro ADME
[1] = Assay 3. In vitro Colonic Material Stability Assay
Description: Assay 3. In vitro Colonic Material Stability Assay. This assay was used to assess the stability of an acylated active agent in a large intestine. All experiments were performed in an anaerobic chamber containing 90% nitrogen, 5% hydrogen and 5% carbon dioxide. Colonic material was resuspended as a slurry (15% w/v final concentration) in pre-reduced, anaerobically sterilized dilution blanks (Anaerobe Systems AS-908). The colonic material was then inoculated into 96 well plates containing YCFAC media (Anaerobe Systems AS-680) or other suitable media (6.7 μL slurry into 1 mL total media). Compounds or groups of compounds were added to each individual well to reach a final analyte concentration of 1 or 10 μM, and the material was mixed by pipetting. Sample was removed after set timepoints (0, 120, 240, 480, 1440, 2880 minutes after initiation of the assay), quenched with acetonitrile containing internal standard, and analyzed by LC/MS.

[2] = Assay 2. Stability in Simulated Intestinal Fluid (SIF); conditions: SIF pH 6.7 with pancreatin, 1 μM, 37° C.
Description: Assay 2. Stability of acylated active agents in Simulated Intestinal Fluid (SIF). This assay was used to assess the stability of an acylated active agent in a small intestine. Phosphate buffer was prepared by dissolving 0.42 g of sodium hydroxide pellets and 3.95 g of monobasic sodium phosphate monohydrate and 6.19 g of sodium chloride in ultrapure water (MilliQ®, Millipore Sigma, Darmstadt, Germany). The pH was adjusted to 6.7 using aq. HCl and aq. NaOH, as necessary, and the solution was diluted with ultrapure water to produce 1 L of the pH 6.7 buffer. 112 mg FaSSIF powder (Biorelevant™, London, UK) was dissolved in 50 mL of the pH 6.7 buffer. 2 to 3 mL of the resulting solution were then added to 500 mg pancreatin (Millipore Sigma, Darmstadt, Germany). The resulting mixture was agitated by finger tapping the vessel containing the mixture until milky suspension formed. At this time, the remainder of the 50 mL FaSSiF/pH 6.7 buffer solution was added. The resulting suspension was flipped upside down 10 times to produce SIF, which was used fresh. Test compounds were dissolved in DMSO stock to 1 mM. An aliquot of the DMSO stock solution was removed and diluted in the SIF media in 15 mL falcon tubes to produce a mixture with a tested compound concentration of 1 μM. A 1 mL aliquot was immediately removed and diluted once with 1 volume of acetonitrile for T0 timepoint. The mixture was sealed and agitated at 37° C. in an incubator. Aliquots (1 mL) were removed at regular intervals and immediately quenched by the addition of 1 volume of acetonitrile. The resulting samples were analyzed by LC/MS to determine degradation rates.

[3] = Assay 1. Stability in Simulated Gastric Fluid (SGF); conditions: SGF pH 1.6 with pepsin, 1 μM, 37° C.
Description: Assay 1. Stability of acylated active agents in Simulated Gastric Fluid (SGF). This assay was used to assess the stability of an acylated active agent in a stomach.
Medium was prepared by dissolving 2 g of sodium chloride in 0.6 L in ultrapure water (MilliQ®, Millipore Sigma, Darmstadt, Germany). The pH was adjusted to 1.6 with 1N hydrochloric acid, and the volume was then adjusted to 1 L with purified water.
60 mg FaSSIF powder (Biorelevant™, London, UK) were dissolved in 500 mL buffer (above). Pepsin was added (0.1 mg/mL) (Millipore Sigma, Darmstadt, Germany), and the solution was stirred. The resulting SGF media were used fresh for each experiment.
Test compounds were dissolved in DMSO stock to 1 mM. An aliquot of the DMSO stock solution was removed and diluted in the SGF Media in 15 mL falcon tubes to generate a total compound concentration of 1 μM. A 1 mL aliquot was immediately removed and diluted once with 1 volume of acetonitrile for T0 timepoint. The mixture was sealed and mixed at 37° C. in an incubator. Aliquots (1 mL) were removed at regular intervals and immediately quenched by the addition of 1 volume of acetonitrile. The resulting samples were analyzed by LC/MS to determine degradation rates in SGF.

[4] = colonic material slurry, anaerobic, 1 or 10 μM

SMILES: CCCC(=O)Oc1cc(OC(=O)CCC)c2c(c1)O[C@H](c1cc(OC(=O)CCC)c(OC(=O)CCC)c(OC(=O)CCC)c1)[C@H](OC(=O)c1cc(OC(=O)CCC)c(OC(=O)CCC)c(OC(=O)CCC)c1)C2 [Compound 1, [(2R,3R)-5,7-di(butanoyloxy)-2-[3,4,5-tri(butanoyloxy)phenyl]chroman-3-yl] 3,4,5-tri(butanoyloxy)benzoate]
- Assay 3 (% Remaining at 24 h) [1, 4]: B (25-75% of the tested compound remaining)
- Assay 2 (SIF) (% @ Remaining 4 hours) [2]: C (>75% of the tested compound remaining)

SMILES: CCC(=O)Oc1cc(OC(=O)CC)c2c(=O)c(OC(=O)CC)c(-c3ccc(OC(=O)CC)c(OC(=O)CC)c3)oc2c1 [Compound 14, [4-[4-oxo-3,5,7-tri(propanoyloxy)chromen-2-yl]-2-propanoyloxy-phenyl] propanoate]
- Assay 3 (% Remaining at 24 h) [1, 4]: C (>75% of the tested compound remaining)
- Assay 2 (SIF) (% @ Remaining 4 hours) [2]: A (<25% of the tested compound remaining)

SMILES: CCCC(=O)Oc1ccc(N)cc1C(=O)O [Compound 16, 5-amino-2-butanoyloxy-benzoic acid]
- Assay 3 (% Remaining at 24 h) [1, 4]: C (>75% of the tested compound remaining)
- Assay 2 (SIF) (% @ Remaining 4 hours) [2]: C (>75% of the tested compound remaining)

SMILES: CCCC(=O)O[C@H]1[C@H](OC(=O)CCC)[C@H](Oc2ccccc2C(=O)O)O[C@@H](C)[C@H]1OC(=O)CCC [Compound 23, 2-(((2S,3S,4R,5R,6S)-3,4,5-tris(butyryloxy)-6-methyltetrahydro-2H-pyran-2-yl)oxy)benzoic acid]
- Assay 3 (% Remaining at 24 h) [1, 4]: C (>75% of the tested compound remaining)
- Assay 2 (SIF) (% @ Remaining 4 hours) [2]: B (25-75% of the tested compound remaining)

SMILES: CCCC(=O)O[C@@H]1[C@@H](OC(=O)CCC)[C@H](Oc2ccc(N)cc2C(=O)O)OC[C@H]1O [Compound 32, 5-amino-2-(((2S,3R,4S,5R)-3,4-bis(butyryloxy)-5-hydroxytetrahydro-2H-pyran-2-yl)oxy)benzoic acid]
- Assay 3 (% Remaining at 24 h) [1, 4]: C (>75% of the tested compound remaining)
- Assay 2 (SIF) (% @ Remaining 4 hours) [2]: B (25-75% of the tested compound remaining)

SMILES: C[C@@H]1OC(OC(=O)CCc2c[nH]c3ccccc23)[C@H](OC(=O)CCc2c[nH]c3ccccc23)[C@H](OC(=O)CCc2c[nH]c3ccccc23)[C@H]1OC(=O)CCc1c[nH]c2ccccc12 (stereo partly drawn) [Compound 147, (3R,4R,5S,6S)-3,4,5-tris({[3-(1H-indol-3-yl)propanoyl]oxy})-6-methyloxan-2-yl 3-(1H-indol-3-yl)propanoate]
- Assay 3 (% Remaining at 24 h) [1, 4]: A (<25% of the tested compound remaining)

SMILES: CCCC(=O)Oc1cc(OC(=O)CCC)c2c(=O)c(OC(=O)CCC)c(-c3ccc(OC(=O)CCC)c(OC(=O)CCC)c3)oc2c1 [Compound 181, [2-butanoyloxy-4-[3,5,7-tri(butanoyloxy)-4-oxo-chromen-2-yl]phenyl] butanoate]
- Assay 1 (SGF) (% Remaining @ 1 hour) [3]: C (>75% of the tested compound remaining)
- Assay 2 (SIF) (% @ Remaining 4 hours) [2]: A (<25% of the tested compound remaining)

SMILES: [2H]C([2H])([2H])C([2H])([2H])CC(=O)O[C@@H]1[C@@H](OC(=O)CC([2H])([2H])C([2H])([2H])[2H])[C@H](Oc2ccc(N)cc2C(=O)O)OC[C@H]1OC(=O)CC([2H])([2H])C([2H])([2H])[2H] [Compound 189, 5-amino-2-{[(2S,3R,4S,5R)-3,4,5-tris[(3,3,4,4,4-^2H5)butanoyloxy]oxan-2-yl]oxy}benzoic acid]
- Assay 3 (% Remaining at 24 h) [1, 4]: B (25-75% of the tested compound remaining)

SMILES: [2H]C([2H])([2H])C([2H])([2H])CC(=O)O[C@@H]1[C@@H](OC(=O)CC([2H])([2H])C([2H])([2H])[2H])[C@H](Oc2ccc(N)cc2C(=O)O)OC[C@H]1O [Compound 192, 5-amino-2-{[(2S,3R,4S,5R)-3,4-bis[(3,3,4,4,4-^2H5)butanoyloxy]-5-hydroxyoxan-2-yl]oxy}benzoic acid]
- Assay 3 (% Remaining at 24 h) [1, 4]: B (25-75% of the tested compound remaining)

SMILES: CC(=O)Oc1cc(OC(C)=O)c2c(c1)O[C@H](c1cc(OC(C)=O)c(OC(C)=O)c(OC(C)=O)c1)[C@H](OC(=O)c1cc(OC(C)=O)c(OC(C)=O)c(OC(C)=O)c1)C2 [Compound 197, [(2R,3R)-5,7-diacetoxy-2-(3,4,5-triacetoxyphenyl)chroman-3-yl] 3,4,5-triacetoxybenzoate]
- Assay 3 (% Remaining at 24 h) [1, 4]: A (<25% of the tested compound remaining)

SMILES: CCCC(=O)Oc1cc(OC(=O)CCC)c2c(c1)O[C@H](c1cc(OC(=O)CCC)c(OC(=O)CCC)c(OC(=O)CCC)c1)[C@H](OC(=O)c1cc(OC(=O)CCC)c(OC(=O)CCC)c(OC(=O)CCC)c1)C2 [Compound 198, [(2R,3R)-5,7-di(butanoyloxy)-2-[3,4,5-tri(butanoyloxy)phenyl]chroman-3-yl] 3,4,5-tri(butanoyloxy)benzoate]
- Assay 3 (% Remaining at 24 h) ([1]; Run 1, colonic material): C (>75% of the tested compound remaining)
- Assay 3 (% Remaining at 24 h) ([1]; Run 2, colonic material): C (>75% of the tested compound remaining)
- Assay 3 (% Remaining at 24 h) ([1]; Run 3, colonic material): B (25-75% of the tested compound remaining)

SMILES: CC(=O)Oc1cc(C(=O)O)cc(OC(C)=O)c1OC(C)=O [Compound 199, 3,4,5-triacetoxybenzoic acid]
- Assay 1 (SGF) (% Remaining @ 1 hour) [3]: C (>75% of the tested compound remaining)
- Assay 2 (SIF) (% @ Remaining 4 hours) [2]: B (25-75% of the tested compound remaining)

SMILES: O=C(CCc1c[nH]c2ccccc12)Oc1cc(C(=O)O)cc(OC(=O)CCc2c[nH]c3ccccc23)c1OC(=O)CCc1c[nH]c2ccccc12 [Compound 202, 3,4,5-tris({[3-(1H-indol-3-yl)propanoyl]oxy})benzoic acid]
- Assay 1 (SGF) (% Remaining @ 1 hour) [3]: A (<25% of the tested compound remaining)
- Assay 2 (SIF) (% @ Remaining 4 hours) [2]: C (>75% of the tested compound remaining)

SMILES: CCC(=O)Oc1ccc2c(c1)oc(=O)c1cc(OC(=O)CC)c(OC(=O)CC)cc12 [Compound 204, [6-oxo-8,9-di(propanoyloxy)benzo[c]chromen-3-yl] propanoate]
- Assay 1 (SGF) (% Remaining @ 1 hour) [3]: C (>75% of the tested compound remaining)
- Assay 2 (SIF) (% @ Remaining 4 hours) [2]: A (<25% of the tested compound remaining)

SMILES: CCCC(=O)Oc1ccc2c(c1)oc(=O)c1cc(OC(=O)CCC)c(OC(=O)CCC)cc12 [Compound 210, 8,9-bis(butanoyloxy)-6-oxo-6H-benzo[c]chromen-3-yl butanoate]
- Assay 3 (% Remaining at 24 h) [1, 4]: A (<25% of the tested compound remaining)

SMILES: CC(=O)O[C@@H]1[C@H](OC(C)=O)C=C(C(=O)O)C[C@H]1OC(C)=O [Compound 215, (3R,4S,5R)-3,4,5-triacetoxycyclohex-1-ene-1-carboxylic acid]
- Assay 3 (% Remaining at 24 h) [1, 4]: B (25-75% of the tested compound remaining)

SMILES: O=C(CCc1c[nH]c2ccccc12)O[C@@H]1[C@H](OC(=O)CCc2c[nH]c3ccccc23)C=C(C(=O)O)C[C@H]1OC(=O)CCc1c[nH]c2ccccc12 [Compound 216, (3R,4S,5R)-3,4,5-tris({[3-(1H-indol-3-yl)propanoyl]oxy})cyclohex-1-ene-1-carboxylic acid]
- Assay 1 (SGF) (% Remaining @ 1 hour) [3]: B (25-75% of the tested compound remaining)
- Assay 2 (SIF) (% @ Remaining 4 hours) [2]: B (25-75% of the tested compound remaining)

SMILES: CCC(=O)O[C@@H]1[C@H](OC(=O)CC)C=C(C(=O)O)C[C@H]1OC(=O)CC [Compound 217, (3R,4S,5R)-3,4,5-tris(propanoyloxy)cyclohex-1-ene-1-carboxylic acid]
- Assay 3 (% Remaining at 24 h) [1, 4]: B (25-75% of the tested compound remaining)

SMILES: CCCC(=O)O[C@@H]1[C@H](OC(=O)CCC)C=C(C(=O)O)C[C@H]1OC(=O)CCC [Compound 218, (3R,4S,5R)-3,4,5-tris(butanoyloxy)cyclohex-1-ene-1-carboxylic acid]
- Assay 3 (% Remaining at 24 h) [1, 4]: B (25-75% of the tested compound remaining)

— patent publication US12115178B2, “Acylated active agents and methods of their use for the treatment of autoimmune disorders” (Flagship Pioneering Innovations V, Inc., priority 2018, dated 2024)
